Active and inactive are the calls of the source.
What was measured:
[1] = tested on: Streptococcus sp. 'group A'; assay: growth inhibition of control SK(-) GAS strain, dose response, counter-screen for streptokinase expression inhibitor project, luminescence, kanamycin, BacTiterGlo, confirmation (AID 1900); assay type: functional, organism-based
[2] = target: Beta-galactosidase (Escherichia coli, UniProt Q8VNN2); assay: PubChem AID 485352; assay type: functional
[3] = target: T1, Exodeoxyribonuclease V (Escherichia coli (strain K12), UniProt P04993+P07648+P08394); assay: E. coli RecBCD inhibitors, dose response, counter-screen for AddAB inhibitor project, absorbance, V66 E. coli, mutant T4 phage (AID 492957); assay type: functional, cell-based, Escherichia coli str. K-12 substr. MG1655
T1 sequence (P04993 whole entry): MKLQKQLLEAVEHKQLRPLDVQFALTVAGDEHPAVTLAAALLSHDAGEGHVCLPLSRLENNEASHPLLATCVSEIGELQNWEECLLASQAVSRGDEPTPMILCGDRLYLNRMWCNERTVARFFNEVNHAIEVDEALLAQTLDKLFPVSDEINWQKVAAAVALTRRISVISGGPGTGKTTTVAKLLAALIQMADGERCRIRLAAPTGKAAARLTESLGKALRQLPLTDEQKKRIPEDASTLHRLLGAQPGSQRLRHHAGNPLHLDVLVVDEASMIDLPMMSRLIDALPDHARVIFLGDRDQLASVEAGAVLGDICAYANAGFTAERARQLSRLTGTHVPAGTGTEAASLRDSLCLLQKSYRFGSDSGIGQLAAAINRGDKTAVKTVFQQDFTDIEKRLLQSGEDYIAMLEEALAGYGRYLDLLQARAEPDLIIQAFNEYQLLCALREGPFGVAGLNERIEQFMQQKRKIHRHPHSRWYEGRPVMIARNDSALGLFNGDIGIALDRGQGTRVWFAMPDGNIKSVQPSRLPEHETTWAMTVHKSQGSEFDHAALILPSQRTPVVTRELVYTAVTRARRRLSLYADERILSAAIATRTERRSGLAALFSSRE
T1 sequence (P07648 whole entry): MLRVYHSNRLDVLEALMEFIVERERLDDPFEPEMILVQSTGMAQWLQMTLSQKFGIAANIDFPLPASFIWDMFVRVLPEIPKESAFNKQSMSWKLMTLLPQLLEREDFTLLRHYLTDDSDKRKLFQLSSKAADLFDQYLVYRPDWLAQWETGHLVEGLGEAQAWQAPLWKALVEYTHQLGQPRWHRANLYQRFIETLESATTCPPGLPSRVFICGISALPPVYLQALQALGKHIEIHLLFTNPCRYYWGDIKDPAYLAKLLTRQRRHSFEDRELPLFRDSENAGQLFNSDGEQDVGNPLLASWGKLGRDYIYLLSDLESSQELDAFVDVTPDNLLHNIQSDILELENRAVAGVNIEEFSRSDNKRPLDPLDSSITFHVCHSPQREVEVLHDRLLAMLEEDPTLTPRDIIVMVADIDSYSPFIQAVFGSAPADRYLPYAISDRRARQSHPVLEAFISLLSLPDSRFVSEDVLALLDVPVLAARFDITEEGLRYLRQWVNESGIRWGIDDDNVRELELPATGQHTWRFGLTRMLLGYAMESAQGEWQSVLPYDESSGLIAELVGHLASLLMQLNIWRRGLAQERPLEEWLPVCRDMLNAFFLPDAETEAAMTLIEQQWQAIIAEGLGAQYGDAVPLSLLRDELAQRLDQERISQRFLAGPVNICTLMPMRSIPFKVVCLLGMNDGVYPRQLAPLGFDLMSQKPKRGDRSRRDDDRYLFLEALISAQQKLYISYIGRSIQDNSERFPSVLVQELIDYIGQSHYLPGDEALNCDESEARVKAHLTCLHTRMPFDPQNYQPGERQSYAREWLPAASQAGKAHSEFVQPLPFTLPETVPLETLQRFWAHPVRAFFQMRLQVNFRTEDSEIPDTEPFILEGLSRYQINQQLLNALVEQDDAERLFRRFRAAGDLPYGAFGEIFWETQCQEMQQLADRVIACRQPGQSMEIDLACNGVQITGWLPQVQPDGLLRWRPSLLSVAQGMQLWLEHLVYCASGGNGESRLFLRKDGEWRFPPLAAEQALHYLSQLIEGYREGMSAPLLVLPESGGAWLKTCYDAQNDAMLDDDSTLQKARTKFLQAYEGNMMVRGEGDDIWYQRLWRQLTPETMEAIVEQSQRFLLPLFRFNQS
T1 sequence (P08394 whole entry): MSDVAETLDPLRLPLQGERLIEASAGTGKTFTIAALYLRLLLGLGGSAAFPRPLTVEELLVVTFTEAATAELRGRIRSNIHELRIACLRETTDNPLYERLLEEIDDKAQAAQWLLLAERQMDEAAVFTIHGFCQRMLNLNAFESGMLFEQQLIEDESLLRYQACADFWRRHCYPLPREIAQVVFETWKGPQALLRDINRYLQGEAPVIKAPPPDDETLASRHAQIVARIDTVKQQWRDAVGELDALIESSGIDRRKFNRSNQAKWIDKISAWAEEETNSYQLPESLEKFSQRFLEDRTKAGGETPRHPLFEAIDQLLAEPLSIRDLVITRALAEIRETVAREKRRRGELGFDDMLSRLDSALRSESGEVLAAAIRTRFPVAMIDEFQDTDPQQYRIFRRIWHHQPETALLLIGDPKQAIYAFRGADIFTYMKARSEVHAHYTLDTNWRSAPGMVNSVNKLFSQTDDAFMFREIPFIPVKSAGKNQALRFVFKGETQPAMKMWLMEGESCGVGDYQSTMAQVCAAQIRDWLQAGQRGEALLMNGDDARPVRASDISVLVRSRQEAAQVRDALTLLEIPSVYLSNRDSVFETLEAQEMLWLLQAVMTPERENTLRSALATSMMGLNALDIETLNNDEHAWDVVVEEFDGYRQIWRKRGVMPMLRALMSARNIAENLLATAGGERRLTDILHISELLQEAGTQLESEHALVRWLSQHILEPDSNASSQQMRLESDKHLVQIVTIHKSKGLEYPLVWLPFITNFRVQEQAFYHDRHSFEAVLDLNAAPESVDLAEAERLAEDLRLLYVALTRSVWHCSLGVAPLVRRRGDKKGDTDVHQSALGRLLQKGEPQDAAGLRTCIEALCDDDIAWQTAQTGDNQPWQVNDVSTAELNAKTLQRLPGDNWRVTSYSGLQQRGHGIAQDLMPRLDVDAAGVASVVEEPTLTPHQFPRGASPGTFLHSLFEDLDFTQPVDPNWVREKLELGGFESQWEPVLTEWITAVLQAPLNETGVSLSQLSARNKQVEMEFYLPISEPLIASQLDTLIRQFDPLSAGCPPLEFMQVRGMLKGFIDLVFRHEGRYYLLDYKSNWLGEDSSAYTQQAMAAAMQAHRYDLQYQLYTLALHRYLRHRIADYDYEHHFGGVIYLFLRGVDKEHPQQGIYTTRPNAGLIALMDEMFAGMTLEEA

[4] = Counterscreen for AddAB inhibitors: absorbance-based bacterial cell-based high throughput dose response assay for inhibitors of bacterial viability. [Related pubchem assays (depositor defined):AID435030, AID449728, AID449731, AID488942, AID488955, AID488956]; assay type: functional

Sequence of Beta-galactosidase (Q8VNN2 whole entry): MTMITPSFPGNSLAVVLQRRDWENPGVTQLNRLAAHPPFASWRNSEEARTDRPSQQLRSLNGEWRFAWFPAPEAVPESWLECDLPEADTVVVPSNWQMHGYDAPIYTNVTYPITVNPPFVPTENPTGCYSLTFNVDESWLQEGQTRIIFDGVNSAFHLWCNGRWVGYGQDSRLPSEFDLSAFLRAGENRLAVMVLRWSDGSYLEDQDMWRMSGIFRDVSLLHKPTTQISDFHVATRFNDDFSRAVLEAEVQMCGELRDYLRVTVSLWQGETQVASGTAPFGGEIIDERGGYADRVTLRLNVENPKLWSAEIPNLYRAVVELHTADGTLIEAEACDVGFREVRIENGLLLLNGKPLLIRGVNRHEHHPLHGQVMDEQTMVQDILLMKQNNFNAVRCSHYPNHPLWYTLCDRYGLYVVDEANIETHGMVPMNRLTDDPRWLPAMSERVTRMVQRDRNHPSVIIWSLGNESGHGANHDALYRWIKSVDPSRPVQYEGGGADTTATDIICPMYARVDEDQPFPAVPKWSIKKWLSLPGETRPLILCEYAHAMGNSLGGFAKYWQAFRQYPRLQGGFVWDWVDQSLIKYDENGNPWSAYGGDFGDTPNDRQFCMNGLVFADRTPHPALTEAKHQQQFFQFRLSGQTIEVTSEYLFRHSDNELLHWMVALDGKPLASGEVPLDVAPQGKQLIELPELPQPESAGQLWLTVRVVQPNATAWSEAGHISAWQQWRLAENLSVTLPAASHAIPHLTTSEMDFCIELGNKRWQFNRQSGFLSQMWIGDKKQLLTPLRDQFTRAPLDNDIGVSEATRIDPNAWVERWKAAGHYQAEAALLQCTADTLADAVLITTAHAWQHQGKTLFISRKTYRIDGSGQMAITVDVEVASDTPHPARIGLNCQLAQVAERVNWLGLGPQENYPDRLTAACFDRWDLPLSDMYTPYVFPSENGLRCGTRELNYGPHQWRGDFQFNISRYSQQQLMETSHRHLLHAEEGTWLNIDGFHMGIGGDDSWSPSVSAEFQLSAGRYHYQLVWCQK

CCCCCCCCCCOC(=O)Cn1c(COc2ccccc2)[n+](C)c2ccccc21
EC50 [1]: 6.91 µM (active)

CCOC(=O)c1c(-c2ccc(-c3ccccc3)cc2)csc1NC(=O)CNCCN(C)C
EC50 [2]: > 40 µM (inactive)

COc1cc(-c2nnc(SCc3cc(=O)oc4cc(O)c(O)cc34)o2)cc(OC)c1OC
IC50 [3]: > 119 µM (inactive)
IC50 [4]: > 119 µM (inactive)
